Drawing on patent US8975398B2, “NAMPT inhibitors” (AbbVie Inc., priority 2012, dated 2015), this text covers IC50 for 24 compounds.

The assay concerns PC3 cells. The assay can be described thus: NAMPT Cell Proliferation Assay (Cell Titer Glo; also performed in the presence of 0.3 mM nicotinamide mononucleotide). It counts as cell-based. The following applies: Homo sapiens, PC-3, 120 h, 5 days incubation, cell viability by Cell Titer Glo. Here is the method: NAMPT Cell Proliferation Assay
PC3 cells were seeded in 96-well black plates (Corning #3904) at 500 cells/well in 90 μl of RPMI media containing 10% heat-inactivated FBS and incubated overnight at 37° C. and 5% CO2 to allow cells to attach to wells. The following day, test compounds were serially diluted in neat DMSO to 1000× final concentrations prior to dilution with RPMI media to 10× and 1% DMSO. Ten μL of the 10× compounds were then transferred to wells containing cells to produce a dose response of 10-fold dilutions from 10 μM to 1×10^−5 μM. Cells were incubated for 5 days at 37° C. and 5% CO2, then cell viability was measured using Cell Titer Glo reagent (Promega #G7571). Percent inhibition values were calculated and fitted to a sigmoidal dose response curves using Assay Explorer software to determine IC50s.

By IC50 is commonly meant the concentration at which inhibition is half-maximal. Take `Cc1ccc(N2CC(C(=O)Nc3ccc(O[C@@H]4CCN(C(=O)CC(C)C)C4)cc3)C2)nn1` [Example 915, N-(4-{[(3R)-1-(3-methylbutanoyl)pyrrolidin-3-yl]oxy}phenyl)-1-(6-methylpyridazin-3-yl)azetidine-3-carboxamide]: the IC50 is 139 nM. With `Cc1ccc(N2CC(C(=O)Nc3ccc(O[C@@H]4CCN(C(=O)C(C)C)C4)cc3)C2)nn1` [Example 916, N-(4-{[(3R)-1-(2-methylpropanoyl)pyrrolidin-3-yl]oxy}phenyl)-1-(6-methylpyridazin-3-yl)azetidine-3-carboxamide] the figure was 646 nM. In the case of `Cc1ccc(N2CC(C(=O)Nc3ccc(O[C@@H]4CCN(C(=O)c5ccc(F)cc5F)C4)cc3)C2)nn1` [Example 917, N-(4-{[(3R)-1-(2,4-difluorobenzoyl)pyrrolidin-3-yl]oxy}phenyl)-1-(6-methylpyridazin-3-yl)azetidine-3-carboxamide], the IC50 is 101 nM. With `Cc1ccc(N2CC(C(=O)Nc3ccc(O[C@@H]4CCN(C(=O)c5cscn5)C4)cc3)C2)nn1` [Example 918, 1-(6-methylpyridazin-3-yl)-N-(4-{[(3R)-1-(1,3-thiazol-4-ylcarbonyl)pyrrolidin-3-yl]oxy}phenyl)azetidine-3-carboxamide] the figure was 717 nM. With `O=C(Nc1ccc(C2CCN(C(=O)CCC(F)(F)F)CC2)nc1)C1CN(c2cccnn2)C1` [Example 919, 1-(pyridazin-3-yl)-N-{6-[1-(4,4,4-trifluorobutanoyl)piperidin-4-yl]pyridin-3-yl}azetidine-3-carboxamide] the figure was 51.9 nM. For `CC(C)(C)CC(=O)N1CCC(c2ccc(NC(=O)C3CN(c4cccnn4)C3)cn2)CC1` [Example 920, N-{6-[1-(3,3-dimethylbutanoyl)piperidin-4-yl]pyridin-3-yl}-1-(pyridazin-3-yl)azetidine-3-carboxamide], the half-maximal inhibitory concentration (IC50) turned out to be 5.43 nM.

As to `Cc1ccnnc1N1CC[C@H](C(=O)Nc2ccc(C3CCN(C(=O)c4ccccc4)CC3)cc2)C1` [Example 921, (3S)—N-[4-(1-benzoylpiperidin-4-yl)phenyl]-1-(4-methylpyridazin-3-yl)pyrrolidine-3-carboxamide], the IC50 was determined as 2.9 nM.

With `Cc1ccnnc1N1CC[C@H](C(=O)Nc2ccc(C3CCN(C(=O)C(C)(C)C)CC3)cc2)C1` [Example 922, (3S)—N-{4-[1-(2,2-dimethylpropanoyl)piperidin-4-yl]phenyl}-1-(4-methylpyridazin-3-yl)pyrrolidine-3-carboxamide], the IC50 worked out at 3.38 nM. With `O=C(Nc1ccc(-c2cc(C(F)(F)F)nn2-c2ccccc2)cc1)C1CN(c2cccnn2)C1` [Example 923, N-{4-[1-phenyl-3-(trifluoromethyl)-1H-pyrazol-5-yl]phenyl}-1-(pyridazin-3-yl)azetidine-3-carboxamide] the figure was 69.4 nM; with `CC(C)(C)Cn1cc(-c2ccc(NC(=O)C3CN(c4cccnn4)C3)cn2)cn1` [Example 924, N-{6-[1-(2,2-dimethylpropyl)-1H-pyrazol-4-yl]pyridin-3-yl}-1-(pyridazin-3-yl)azetidine-3-carboxamide], 1.17 nM; with `CC(C)(C)OC(=O)N1CCC(n2cc(NC(=O)C3CN(c4cccnn4)C3)cn2)CC1` [Example 925, tert-butyl 4-[4-({[1-(pyridazin-3-yl)azetidin-3-yl]carbonyl}amino)-1H-pyrazol-1-yl]piperidine-1-carboxylate], 10.1 nM.

Regarding `CC1(Cn2cc(-c3ccc(NC(=O)C4CN(c5cccnn5)C4)cn3)cn2)CCNCC1` [Example 926, N-(6-{1-[(4-methylpiperidin-4-yl)methyl]-1H-pyrazol-4-yl}pyridin-3-yl)-1-(pyridazin-3-yl)azetidine-3-carboxamide], the IC50 stood at 602 nM. Consider `O=C(Nc1ccc(CC2CCN(C(=O)c3cncs3)CC2)cc1)C1CN(c2cccnn2)C1` [Example 927, 1-(pyridazin-3-yl)-N-(4-{[1-(1,3-thiazol-5-ylcarbonyl)piperidin-4-yl]methyl}phenyl)azetidine-3-carboxamide], for which the IC50 was determined as 3.9 nM.

Consider `O=C(Nc1ccc(CC2CCN(C(=O)C3CCCC3)CC2)cc1)C1CN(c2cccnn2)C1` [Example 928, N-(4-{[1-(cyclopentylcarbonyl)piperidin-4-yl]methyl}phenyl)-1-(pyridazin-3-yl)azetidine-3-carboxamide], for which the IC50 worked out at 2.56 nM. For the compound `O=C(Nc1ccc(CC2CCN(C(=O)c3cn[nH]c3)CC2)cc1)C1CN(c2cccnn2)C1` [Example 929, N-(4-{[1-(1H-pyrazol-4-ylcarbonyl)piperidin-4-yl]methyl}phenyl)-1-(pyridazin-3-yl)azetidine-3-carboxamide], the IC50 stood at 27.1 nM. Regarding `CCC(C)(C)C(=O)N1CCC(Cc2ccc(NC(=O)C3CN(c4cccnn4)C3)cc2)CC1` [Example 930, N-(4-{[1-(2,2-dimethylbutanoyl)piperidin-4-yl]methyl}phenyl)-1-(pyridazin-3-yl)azetidine-3-carboxamide], the IC50 is 2.7 nM. With `CC1CC1C(=O)N1CCC(Cc2ccc(NC(=O)C3CN(c4cccnn4)C3)cc2)CC1` (stereo not drawn) [Example 931, N-[4-({1-[(2-methylcyclopropyl)carbonyl]piperidin-4-yl}methyl)phenyl]-1-(pyridazin-3-yl)azetidine-3-carboxamide] the figure was 3.17 nM; with `CSCC(=O)N1CCC(Cc2ccc(NC(=O)C3CN(c4cccnn4)C3)cc2)CC1` [Example 932, N-[4-({1-[(methylsulfanyl)acetyl]piperidin-4-yl}methyl)phenyl]-1-(pyridazin-3-yl)azetidine-3-carboxamide], 5.82 nM. With `O=C(Nc1ccc(CC2CCN(C(=O)CC3C[C@@H]4CC[C@H]3C4)CC2)cc1)C1CN(c2cccnn2)C1` (stereo partly drawn) [Example 933, N-[4-({1-[(1S,4R)-bicyclo[2.2.1]hept-2-ylacetyl]piperidin-4-yl}methyl)phenyl]-1-(pyridazin-3-yl)azetidine-3-carboxamide] the figure was 2.39 nM; with `CCCC(C)C(=O)N1CCC(Cc2ccc(NC(=O)C3CN(c4cccnn4)C3)cc2)CC1` (stereo not drawn) [Example 934, N-(4-{[1-(2-methylpentanoyl)piperidin-4-yl]methyl}phenyl)-1-(pyridazin-3-yl)azetidine-3-carboxamide], 2.45 nM. As to `CC(C)CCC(=O)N1CCC(Cc2ccc(NC(=O)C3CN(c4cccnn4)C3)cc2)CC1` [Example 935, N-(4-{[1-(4-methylpentanoyl)piperidin-4-yl]methyl}phenyl)-1-(pyridazin-3-yl)azetidine-3-carboxamide], the IC50 amounted to 2 nM. With `CSCCC(=O)N1CCC(Cc2ccc(NC(=O)C3CN(c4cccnn4)C3)cc2)CC1` [Example 936, N-[4-({1-[3-(methylsulfanyl)propanoyl]piperidin-4-yl}methyl)phenyl]-1-(pyridazin-3-yl)azetidine-3-carboxamide] the figure was 2.18 nM.

On to `O=C(Nc1ccc(CC2CCN(C(=O)c3cscn3)CC2)cc1)C1CN(c2cccnn2)C1` [Example 937, 1-(pyridazin-3-yl)-N-(4-{[1-(1,3-thiazol-4-ylcarbonyl)piperidin-4-yl]methyl}phenyl)azetidine-3-carboxamide], for which the IC50 worked out at 2.62 nM.

For `O=C(Nc1ccc(CC2CCN(C(=O)c3ccn[nH]3)CC2)cc1)C1CN(c2cccnn2)C1` [Example 938, N-(4-{[1-(1H-pyrazol-5-ylcarbonyl)piperidin-4-yl]methyl}phenyl)-1-(pyridazin-3-yl)azetidine-3-carboxamide], the 50% inhibitory concentration (IC50) came to 8.75 nM.
